Laboratory results reported in patent US20110098177A1, “METHODS AND COMPOSITIONS OF PLANT MICRONUTRIENTS” (NOVUS INTERNATIONAL INC., priority 2006, published 2011).
Entries after “also recorded” stand apart in the source; their conditions may differ. Where two headings read alike, the source gives them in different places. Marks after values point to notes of the source that are not given here.

Key:
Format in all cases: in vivo
[1] = tested on: Patriot bell pepper plants; test: Foliar nutrient concentration at 6 WAT, open-field bell pepper (Examples 7-10); conditions: 6 WAT, open field; for Foliar B concentration of bell pepper plants / Foliar Ca concentration of bell pepper plants / Foliar Cu concentration of bell pepper plants / Foliar Fe concentration of bell pepper plants / Foliar K concentration of bell pepper plants / Foliar Mg concentration of bell pepper plants / Foliar Mn concentration of bell pepper plants / Foliar N concentration of bell pepper plants / Foliar P concentration of bell pepper plants / Foliar Zn concentration of bell pepper plants: product rate as Table 17
Outline: (§1)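 Open-field 2008 trial, Balm FL; 'Tygress' tomato and 'Patriot' pepper transplants on drip-fed raised beds. Foliar micronutrient sprays at 3 and 5 WAT (BIOX-CM at 4 and 5), 60 gal/acre with surfactant. Youngest mature leaves sampled 6 WAT; RCBD, 5 replications, Fisher's LSD 5%.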

Florida-47 tomato [2] = test: Marketable yield per plant, greenhouse Fall 2007, tomato; conditions: for Marketable yield per plant, Tomato: foliar application at 3 and 7 WAT, rates not separated; for Tomato yield compared with control (in words): foliar applications, P<0.05
Experimental: (§2) The following experiments were performed in a green house during the fall of 2007 at GCREC, Balm, University of Florida. Fifteen products, at 3 different application rates were examined. The plot size was 2-gallon pots. Crop set-up, procedures and variables were as follows.
(§3) Transplants of ‘Florida-47’ tomato and ‘Aristotle’ bell pepper plants in the 4-true leaf stage (about 6 inches tall) were planted in 2-gal pots on Aug. 27, 2007. Pots were filled with a commercially available planting medium. This medium was selected based on the mineral composition of the products to be applied without providing significant nutritional inputs to the crops. Irrigation was provided with drip lines delivering between 0.50 and 0.33 gal/day/pot for tomato and bell pepper, respectively, and the crops were irrigated three times per day. No foliar pesticides were necessary.
(§4) There were four control treatments corresponding to each target micronutrient in which non-Fe, non-Mn, non-Zn or non-Cu pots received all other essential nutrients under non-limiting conditions.
(§5) Treatments were applied at three rates (high, medium and low) obtained from the estimated concentration of Zn, Fe, Cu, and Mn foliarly-applied in tomato and bell pepper in field situations (Table 1). Products were weighed and dissolved in 200 ml of deionized water with a non-ionic surfactant and applied to the newly-matured open leaves of each crop at 3 and 7 weeks after transplant (WAT). Treated pots were isolated during application to avoid cross-contamination of other treatments.
(§6) Medium nutrient concentration was determined 1 week before treatment. The mineral composition of the medium was 26.8 ppm NH4—N, 49 ppm NO3—N, 15.8 ppm P, 91.2 ppm K, 82.3 ppm Ca, 58.2 ppm Mg, 23.9 ppm Na, 125.6 ppm S, 1.33 ppm Fe, 0.39 ppm Mn, 0.35 ppm Zn, 0.05 pp, Cu, 0.04 ppm B, 0 ppm Mo, 0.73 ppm Al, and 12.1 ppm Si. The pH of the medium was 5.36 and the electric conductivity was 1.38 mS/cm. The foliar tissue analysis was performed at 6 WAT and the concentration of N, P, K, Mg, Ca, S, B, Zn, Mn, Fe, and Cu was determined by a commercial laboratory. Plant toxicity was determined at 4 WAT by using a 0-10 visual scale, where 0=no visible damage and 10=total plant death. Marketable fruit weight was collected 2 times in bell pepper and 4 times in tomato following USDA standards.
(§7) Data were analyzed using a general linear model, and means were separated using orthogonal contrasts at the 5% significance level.

Aristotle bell pepper [3] = conditions: 1 week after treatment, scale 0 = no visible injury, 10 = plant death
Outline: (§8)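 Florida-47 tomato and Aristotle bell pepper transplants in 2-gal pots with low-nutrient medium (pH 5.36), drip-irrigated; products at three rates in deionized water plus non-ionic surfactant sprayed on newly matured leaves at 3 and 7 WAT. Toxicity scored at 4 WAT (0=no damage, 10=death); foliar tissue analysed at 6 WAT; marketable fruit harvested 4 times (tomato).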

Florida-47 tomato [4] = conditions: for Tomato toxicity: 1 week after treatment, scale 0 = no visible injury, 10 = plant death
Outline: as §8

Tygress tomato plants [5] = test: Foliar nutrient concentration at 6 WAT, open-field tomato (Examples 7-10); conditions: 6 WAT, open field; for Foliar B concentration of tomato plants / Foliar Ca concentration of tomato plants / Foliar Cu concentration of tomato plants / Foliar Fe concentration of tomato plants / Foliar K concentration of tomato plants / Foliar Mg concentration of tomato plants / Foliar Mn concentration of tomato plants / Foliar N concentration of tomato plants / Foliar P concentration of tomato plants / Foliar Zn concentration of tomato plants: product rate as Table 17
Outline: as §1

Aristotle bell pepper [6] = test: Marketable yield per plant, greenhouse Fall 2007, bell pepper; conditions: for Marketable yield per plant, Pepper: foliar application at 3 and 7 WAT, rates not separated; for Bell pepper yield compared with control (in words): foliar applications, P<0.05
Experimental: as §2, §3, §4, §5, §6, §7

Tygress tomato plants [7] = test: Nutrient concentration of tomato fruits at 10 WAT, open field (Examples 7-10); conditions: 10 WAT; open field; product rate as Table 17
Outline: as §1

Tygress tomato plants [8] = test: Marketable yield, open-field tomato (Examples 7-10); conditions: open field; for Marketable yield, Tomato: lb/acre/season: BIOX-Z 1.3, Cu 6.7, M 23.0, Fe 3.2, INC 4.0, INZ 0.6, CM 10.0, GZ 1.0, GF 4.0, EDZ 1.4, EDM 23.0
Outline: as §1

SMILES: CSCCC(O)C(=O)[O-].CSCCC(O)C(=O)[O-].[Zn+2] (stereo not drawn) [BIOX-Z, Zn-HMTBA]
- Foliar Zn concentration of bell pepper plants compared to control, statement [1]: significantly higher foliar concentration of Zn
- Foliar B concentration of bell pepper plants [1]: 62 ppm
- Foliar Ca concentration of bell pepper plants [1]: 4.4%
- Foliar Cu concentration of bell pepper plants [1]: 387 ppm
- Foliar Fe concentration of bell pepper plants [1]: 121 ppm
- Foliar K concentration of bell pepper plants [1]: 3.7%
- Foliar Mg concentration of bell pepper plants [1]: 0.50%
- Foliar Mn concentration of bell pepper plants [1]: 240 ppm
- Foliar N concentration of bell pepper plants [1]: 4.2%
- Foliar P concentration of bell pepper plants [1]: 0.25%
- Foliar Zn concentration of bell pepper plants [1]: 220 a ppm
- Marketable yield per plant, Tomato (Florida-47 tomato [2]): 2.9* lb/plant
- Tomato yield compared with control (in words) (Florida-47 tomato [2]): significantly increased
- Pepper toxicity (Aristotle bell pepper [3]; High rate): 0
- Pepper toxicity (Aristotle bell pepper [3]; Low rate): 0
- Pepper toxicity (Aristotle bell pepper [3]; Medium rate): 0
- Tomato toxicity (Florida-47 tomato [4]; High rate): 0
- Tomato toxicity (Florida-47 tomato [4]; Low rate): 0
- Tomato toxicity (Florida-47 tomato [4]; Medium rate): 0
- Foliar Zn concentration of tomato plants, statement (Tygress tomato plants [5]): highest foliar concentration of Zn; also recorded: significantly higher foliar Zn content
- Foliar B concentration of tomato plants (Tygress tomato plants [5]): 59 ppm
- Foliar Ca concentration of tomato plants (Tygress tomato plants [5]): 2.2%
- Foliar Cu concentration of tomato plants (Tygress tomato plants [5]): 338 ppm
- Foliar Fe concentration of tomato plants (Tygress tomato plants [5]): 76 ppm
- Foliar K concentration of tomato plants (Tygress tomato plants [5]): 5.5%
- Foliar Mg concentration of tomato plants (Tygress tomato plants [5]): 0.78%
- Foliar Mn concentration of tomato plants (Tygress tomato plants [5]): 198 ppm
- Foliar N concentration of tomato plants (Tygress tomato plants [5]): 4.7%
- Foliar P concentration of tomato plants (Tygress tomato plants [5]): 0.21%
- Foliar Zn concentration of tomato plants (Tygress tomato plants [5]): 434 a ppm
- Marketable yield per plant, Pepper (Aristotle bell pepper [6]): 2.9* lb/plant
- Bell pepper yield compared with control (in words) (Aristotle bell pepper [6]): significantly increased
- B concentration of tomato fruits (Tygress tomato plants [7]): 20 ppm
- Ca concentration of tomato fruits (Tygress tomato plants [7]): 0.2%
- Cu concentration of tomato fruits (Tygress tomato plants [7]): 21 ppm
- Fe concentration of tomato fruits (Tygress tomato plants [7]): 82 ppm
- K concentration of tomato fruits (Tygress tomato plants [7]): 8.0%
- Mg concentration of tomato fruits (Tygress tomato plants [7]): 0.36%
- Mn concentration of tomato fruits (Tygress tomato plants [7]): 38 ppm
- N concentration of tomato fruits (Tygress tomato plants [7]): 4.3%
- P concentration of tomato fruits (Tygress tomato plants [7]): 0.63%
- Zn concentration of tomato fruits (Tygress tomato plants [7]): 308 ppm
- Tomato marketable yield compared to control, statement (Tygress tomato plants [8]): significantly higher than the control tomato harvest; also recorded: higher marketable yield compared to control
- Marketable yield, Tomato (Tygress tomato plants [8]): 17.5 ton/acre

SMILES: CSCCC(O)C(=O)[O-].CSCCC(O)C(=O)[O-].[Cu+2] (stereo not drawn) [BIOX-Cu, Cu-HMTBA]
- Foliar B concentration of bell pepper plants [1]: 42 ppm
- Foliar Ca concentration of bell pepper plants [1]: 1.8%
- Foliar Cu concentration of bell pepper plants [1]: 407 b ppm
- Foliar Fe concentration of bell pepper plants [1]: 83 ppm
- Foliar K concentration of bell pepper plants [1]: 5.6%
- Foliar Mg concentration of bell pepper plants [1]: 0.58%
- Foliar Mn concentration of bell pepper plants [1]: 211 ppm
- Foliar N concentration of bell pepper plants [1]: 5.0%
- Foliar P concentration of bell pepper plants [1]: 0.21%
- Foliar Zn concentration of bell pepper plants [1]: 306 ppm
- Marketable yield per plant, Tomato (Florida-47 tomato [2]): 5.5* lb/plant
- Tomato yield compared with control (in words) (Florida-47 tomato [2]): significantly increased
- Pepper toxicity (Aristotle bell pepper [3]; High rate): 0
- Pepper toxicity (Aristotle bell pepper [3]; Low rate): 0
- Pepper toxicity (Aristotle bell pepper [3]; Medium rate): 0
- Tomato toxicity (Florida-47 tomato [4]; High rate): 0
- Tomato toxicity (Florida-47 tomato [4]; Low rate): 0
- Tomato toxicity (Florida-47 tomato [4]; Medium rate): 0
- Foliar injury (in words) (Florida-47 tomato [4]; copper concentration of 0.004% to 0.061% by weight, tomato and bell pepper stated together): no foliar injury
- Foliar B concentration of tomato plants (Tygress tomato plants [5]): 42 ppm
- Foliar Ca concentration of tomato plants (Tygress tomato plants [5]): 1.8%
- Foliar Cu concentration of tomato plants (Tygress tomato plants [5]): 407 b ppm
- Foliar Fe concentration of tomato plants (Tygress tomato plants [5]): 83 ppm
- Foliar K concentration of tomato plants (Tygress tomato plants [5]): 5.6%
- Foliar Mg concentration of tomato plants (Tygress tomato plants [5]): 0.58%
- Foliar Mn concentration of tomato plants (Tygress tomato plants [5]): 211 ppm
- Foliar N concentration of tomato plants (Tygress tomato plants [5]): 5.0%
- Foliar P concentration of tomato plants (Tygress tomato plants [5]): 0.21%
- Foliar Zn concentration of tomato plants (Tygress tomato plants [5]): 306 ppm
- Marketable yield per plant, Pepper (Aristotle bell pepper [6]): 4.0* lb/plant
- Bell pepper yield compared with control (in words) (Aristotle bell pepper [6]): significantly increased
- B concentration of tomato fruits (Tygress tomato plants [7]): 21 ppm
- Ca concentration of tomato fruits (Tygress tomato plants [7]): 0.2%
- Cu concentration of tomato fruits (Tygress tomato plants [7]): 21 ppm
- Fe concentration of tomato fruits (Tygress tomato plants [7]): 77 ppm
- K concentration of tomato fruits (Tygress tomato plants [7]): 8.5%
- Mg concentration of tomato fruits (Tygress tomato plants [7]): 0.39%
- Mn concentration of tomato fruits (Tygress tomato plants [7]): 37 ppm
- N concentration of tomato fruits (Tygress tomato plants [7]): 4.4%
- P concentration of tomato fruits (Tygress tomato plants [7]): 0.67%
- Zn concentration of tomato fruits (Tygress tomato plants [7]): 294 ppm
- Tomato marketable yield compared to control, statement (Tygress tomato plants [8]): significantly increased tomato marketable yields relative to control; also recorded: significantly higher marketable yield of tomato fruits compared to control
- Marketable yield, Tomato (Tygress tomato plants [8]): 19.2 a ton/acre
